Measurements taken from PubChem BioAssay (NCI).
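Values below derive from 48-hour exposures of cells grown in 96-well plates, with endpoints linearly interpolated between the two concentrations bracketing the appropriate inhibition level. GI50 = concentration required for 50% inhibition of growth. At the TGI there is no net growth.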

What was measured:
Assay in all cases: NCI-60 cell line screen, 48 h
[1] = test system: KM12 colon
[2] = test system: SK-MEL-2 melanoma
[3] = test system: NCI-H23 lung
[4] = test system: CAKI-1 renal
[5] = test system: HCT-116 colon
[6] = test system: HCT-15 colon
[7] = test system: MDA-MB-435
[8] = test system: MDA-MB-468 breast
[9] = test system: PC-3 prostate
[10] = test system: TK-10 renal
[11] = test system: UACC-62 melanoma
[12] = test system: SNB-19 CNS
[13] = test system: K-562 leukemia
[14] = test system: NCI-H460 lung
[15] = test system: SW-620 colon
[16] = test system: CCRF-CEM leukemia
[17] = test system: 786-0 renal
[18] = test system: SK-MEL-28 melanoma
[19] = test system: MCF7 breast
[20] = test system: ACHN renal
[21] = test system: HOP-92 NSCLC
[22] = test system: OVCAR-8 ovarian
[23] = test system: DU-145 prostate
[24] = test system: SF-268 CNS
[25] = test system: SK-OV-3 ovarian
[26] = test system: MDA-MB-231 breast
[27] = test system: RXF 393 renal
[28] = test system: SK-MEL-5 melanoma
[29] = test system: M14 melanoma
[30] = test system: MALME-3M melanoma
[31] = test system: RPMI-8226 leukemia
[32] = test system: HT29 colon
[33] = test system: OVCAR-5 ovarian
[34] = test system: U251 CNS
[35] = test system: IGROV1 ovarian
[36] = test system: HCC-2998 colon
[37] = test system: UO-31 renal
[38] = test system: HL-60(TB) leukemia
[39] = test system: COLO 205 colon
[40] = test system: BT-549 breast
[41] = test system: OVCAR-4 ovarian
[42] = test system: SR leukemia
[43] = test system: SN12C renal
[44] = test system: SF-539 CNS
[45] = test system: HOP-62 NSCLC
[46] = test system: SF-295 CNS
[47] = test system: HS 578T breast
[48] = test system: SNB-75 CNS
[49] = test system: NCI/ADR-RES ovarian
[50] = test system: A498 renal
[51] = test system: UACC-257 melanoma
[52] = test system: OVCAR-3 ovarian
[53] = test system: A549 NSCLC
[54] = test system: NCI-H226 lung
[55] = test system: NCI-H522 lung
[56] = test system: LOX IMVI melanoma
[57] = test system: EKVX NSCLC
[58] = test system: MOLT-4 leukemia

SMILES: Cn1cc(-c2nc(N)nnc2-c2c[nH]c3ccc(Br)cc23)c2cc(Br)cnc21
- GI50 [1]: 146 nM
- TGI [1]: 11300 nM
- GI50 [2]: 194 nM
- TGI [2]: 14800 nM
- GI50 [3]: 373 nM
- TGI [3]: 14900 nM
- GI50 [4]: 184 nM
- TGI [4]: 18200 nM
- GI50 [5]: 141 nM
- TGI [5]: 3360 nM
- GI50 [6]: 177 nM
- TGI [6]: 11000 nM
- GI50 [7]: 32 nM
- TGI [7]: 120 nM
- GI50 [8]: 69 nM
- TGI [8]: 1030 nM
- GI50 [9]: 130 nM
- TGI [9]: 30100 nM
- GI50 [10]: 12600 nM
- TGI [10]: 50400 nM
- GI50 [11]: 47.3 nM
- TGI [11]: 16400 nM
- GI50 [12]: 454 nM
- TGI [12]: 16500 nM
- GI50 [13]: 49 nM
- TGI [13]: > 35600 nM
- GI50 [14]: 349 nM
- TGI [14]: 11200 nM
- GI50 [15]: 217 nM
- TGI [15]: 18400 nM
- GI50 [16]: 279 nM
- TGI [16]: > 100000 nM
- GI50 [17]: 422 nM
- TGI [17]: 16100 nM
- GI50 [18]: 324 nM
- TGI [18]: 17800 nM
- GI50 [19]: 58.3 nM
- TGI [19]: 15900 nM
- GI50 [20]: 748 nM
- TGI [20]: 13200 nM
- GI50 [21]: 1270 nM
- TGI [21]: 11400 nM
- GI50 [22]: 450 nM
- TGI [22]: 9020 nM
- GI50 [23]: 352 nM
- TGI [23]: 12800 nM
- GI50 [24]: 1620 nM
- TGI [24]: 22000 nM
- GI50 [25]: 432 nM
- TGI [25]: 20200 nM
- GI50 [26]: 442 nM
- TGI [26]: 11700 nM
- GI50 [27]: 167 nM
- TGI [27]: 3840 nM
- GI50 [28]: 114 nM
- TGI [28]: 3910 nM
- GI50 [29]: 148 nM
- TGI [29]: 13900 nM
- GI50 [30]: 135 nM
- TGI [30]: 20300 nM
- GI50 [31]: 422 nM
- TGI [31]: > 100000 nM
- GI50 [32]: 269 nM
- TGI [32]: 1040 nM
- GI50 [33]: 422 nM
- TGI [33]: 15600 nM
- GI50 [34]: 349 nM
- TGI [34]: 13300 nM
- GI50 [35]: 398 nM
- TGI [35]: 18800 nM
- GI50 [36]: 379 nM
- TGI [36]: 11400 nM
- GI50 [37]: 349 nM
- TGI [37]: 16500 nM
- GI50 [38]: 144 nM
- TGI [38]: 824 nM
- GI50 [39]: 248 nM
- TGI [39]: 762 nM
- GI50 [40]: 227 nM
- TGI [40]: 7720 nM
- GI50 [41]: 978 nM
- TGI [41]: 20200 nM
- GI50 [42]: 43 nM
- TGI [42]: > 52900 nM
- GI50 [43]: 423 nM
- TGI [43]: 14500 nM
- GI50 [44]: 154 nM
- TGI [44]: 532 nM
- GI50 [45]: 420 nM
- TGI [45]: 19500 nM
- GI50 [46]: 75 nM
- TGI [46]: 12800 nM
- GI50 [47]: 285 nM
- TGI [47]: 38000 nM
- GI50 [48]: 192 nM
- TGI [48]: 2910 nM
- GI50 [49]: 432 nM
- TGI [49]: 7080 nM
- GI50 [50]: 662 nM
- TGI [50]: 5320 nM
- GI50 [51]: 11000 nM
- TGI [51]: 23500 nM
- GI50 [52]: 64.9 nM
- TGI [52]: 2510 nM
- GI50 [53]: 455 nM
- TGI [53]: 29100 nM
- GI50 [54]: 582 nM
- TGI [54]: 8660 nM
- GI50 [55]: 21.2 nM
- TGI [55]: 61.9 nM
- GI50 [56]: 299 nM
- TGI [56]: 15800 nM
- GI50 [57]: 881 nM
- TGI [57]: 23700 nM
- GI50 [58]: 341 nM
- TGI [58]: 20300 nM
